Results as given in patent publication US8552013B2, “Heterocyclic compounds based on N6-substituted adenine, methods of their preparation, their use for preparation of drugs, cosmetic preparations and growth regulators, pharmaceutical preparations, cosmetic preparations and growth regulators containing these compounds” (USTAV Experimentalni Botaniky Akademie Ved Ceske Republiky, priority 2001, dated 2013).

Key:
[1] = tested on: human diploid fibroblasts (HCA cells); experiment: Senescence, beta-galactosidase staining of human diploid fibroblasts; format: cell-based; details: for SENESCENT CELLS (%) HCA25: passage 25; for SENESCENT CELLS (%) HCA45: passage 45; for SENESCENT CELLS (%) HCA80: passage 80
Method: In this example, human diploid fibroblasts (HCA cells of various passage levels: passage 25—designated HCA25; passage 45—designated HCA45; passage 80—designated HCA80) were stained for β-galactosidase activity. The medium used for cell cultivation was removed, the cells were washed twice in […], and fixed in 2-3 ml of fixing solution comprised of a 2% formaldehyde and 0.2% glutaraldehyde in PBS. The cells were incubated at room temperature for 5 minutes, then washed twice with PBS. The cells were subsequently incubated at 37° C. (without CO2) for 1 to 16 hours in 2-3 ml of a solution comprising potassium ferricyanide (5 mM), potassium ferrocyanide (5 mM), MgCl2 (2 mM), X-gal (5-bromo-4-chloro-3-indolyl-β-D-galactopyranoside) (1 mg/ml), in citric/phosphate buffer, pH 6.0). […] In this experiment, senescent cells, but not other cells were stained blue due to the action of β-galactosidase on the substrate (FIG. 4).

[2] = tested on: Triticum aestivum cv. Hereward leaf tips; experiment: Retention of chlorophyll in excised wheat leaf tips; format: in vivo; details: for Activity (%) [10^−4 mol · l^−1 BAP = 100%]: chlorophyll retention at the concentration with highest activity
Method: Seeds of winter wheat, Triticum aestivum cv. Hereward, were washed under running water for 24 hours and then sown on vermiculite soaked with Knop's solution. They were placed in the grown chamber at 25° C. with a 16/8 h light period at 50 μmol.m^−2.s^−1. After 7 days, the first leaf was fully developed and the second leaf had started to grow. A tip section of the first leaf, approximately 35 mm long, was removed from 5 seedlings and trimmed slightly to a combined weight of 100 mg. The basal ends of the five leaf tips were placed in the wells of a microtiter polystyrene plate containing 150 μl of a cytokinin solution each. The entire plate was inserted into a plastic box lined with paper tissues soaked in distilled water to prevent leaf sections from drying out. After a 96 h incubation in the dark at 25° C., the leaves were removed and chlorophyll extracted by heating at 80° C. for 10 min in 5 ml of 80% ethanol (v/v). The sample volume was then restored to 5 ml by the addition of 80% ethanol (v/v). The absorbency of the extract was recorded at 665 nm. In addition, chlorophyll extracts from fresh leaves and leaf tips incubated in deionised water were measured. From the obtained data, the concentration with highest activity was selected for each compound tested. Relative activity of the compound at this concentration was calculated (Tab. 6). The activity obtained for 10^−4 M 6-benzylaminopurine (BAP) was postulated as 100%. The values shown are means of five replicates and the whole experiment was repeated twice. The cytokinins to be tested were dissolved in dimethylsulfoxide (DMSO) and the solution brought up to 10^−3M with distilled water. This stock was further diluted in distilled water to concentrations ranging from 10^−8M to 10^−4M.

| SMILES | SENESCENT CELLS (%) HCA25 [1] [%] | SENESCENT CELLS (%) HCA45 [1] [%] | SENESCENT CELLS (%) HCA80 [1] [%] | Activity (%) [10^−4 mol · l^−1 BAP = 100%] [2] | concentration with highest activity ([2]; wheat leaf tips, 96 h in the dark) |
| --- | --- | --- | --- | --- | --- |
| NCc1ccc(Cl)c(N)c1N [2,3-diamino-4-chlorobenzylamine] | 4 | 3 | 17 | – | – |
| Oc1c(Cl)ccc(CNc2ncnc3nc[nH]c23)c1O [2,3-dihydroxy-4-chlorobenzylamino, 6-(2,3-dihydroxy-4-chlorobenzylamino)purine] | 3 | 3 | 14 | – | – |
| COc1ccc(CNc2ncnc3nc[nH]c23)c(O)c1O [2,3-dihydroxy-4-methoxybenzylamino, 6-(2,3-dihydroxy-4-methoxybenzylamino)purine] | 3 | 4 | 17 | – | – |
| Oc1cc(CNc2ncnc3nc[nH]c23)c(O)cc1Cl [2,5-dihydroxy-4-chlorobenzylamino, 6-(2,5-dihydroxy-4-chlorobenzylamino)purine] | 5 | 4 | 23 | – | – |
| COc1cc(O)c(CNc2ncnc3nc[nH]c23)cc1O [2,5-dihydroxy-4-methoxybenzylamino, 6-(2,5-dihydroxy-4-methoxybenzylamino)purine] | 5 | 3 | 22 | – | – |
| Oc1cc(Cl)cc(O)c1CNc1ncnc2nc[nH]c12 [2,6-dihydroxy-4-chlorobenzylamino, 6-(2,6-dihydroxy-4-chlorobenzylamino)purine] | 3 | 3 | 16 | – | – |
| COc1cc(O)c(CNc2ncnc3nc[nH]c23)c(O)c1 [2,6-dihydroxy-4-methoxybenzylamino, 6-(2,6-dihydroxy-4-methoxybenzylamino)purine] | 4 | 3 | 13 | – | – |
| CC(=O)Oc1ccccc1CNc1ncnc2nc[nH]c12 [2-acetoxybenzylamino, 6-(2-acetoxybenzylamino)purine] | 6 | 5 | 32 | – | – |
| CC(=O)c1ccccc1CNc1ncnc2nc[nH]c12 [2-acetylbenzylamino, 6-(2-acetylbenzylamino)purine] | 3 | 4 | 25 | – | – |
| Nc1nc(NCc2cccc(O)c2)c2[nH]cnc2n1 [2-amino-6-(3-hydroxybenzylamino)purine] | – | – | – | 121 (±7) % | – |
| Nc1cccc(Cl)c1CNc1ncnc2nc[nH]c12 [2-amino-6-chlorobenzylamine, 6-(2-amino-6-chlorobenzylamino)purine] | 3 | 4 | 16 | – | – |
| Oc1cccc(CNc2nc(Cl)nc3nc[nH]c23)c1 [2-chlor-6-(3-hydroxybenzylamino)purine] | – | – | – | 140 (±13) % | 10^−4 mol · l^−1 |
| Oc1c(Cl)cccc1CNc1ncnc2nc[nH]c12 [2-hydroxy-3-chlorobenzylamino, 6-(2-hydroxy-3-chloroxybenzylamino)purine] | 4 | 3 | 14 | – | – |
